Laboratory results as given in patent publication US20230399312A1, “SUBSTITUTED PYRIMIDINES AND METHODS OF USE” (THERAVANCE BIOPHARMA R&D IP, LLC, priority 2020, published 2023).

How the values were obtained:
[1] = system: TGF-β-stimulated SMAD3 phosphorylation in BEAS-2B cells; assay: Cellular ALK5 potency assay, inhibition of TGF-β stimulated pSMAD3 formation in BEAS-2B cells; assay type: cell-based; settings: Homo sapiens, pSMAD3, TGF-β 10 ng/mL, read-out: BEAS2B pIC50 (converted)
Procedure: The potency of compounds of the present disclosure for inhibition of TGF-β-stimulated SMAD3 phosphorylation was measured in BEAS-2B cells, a human lung epithelial cell line. TGF-β signals through activin receptor-like kinase 5 (ALK5) immediately prior to SMAD3 phosphorylation.
BEAS-2B cells were grown using 50% DMEM (Life Technologies) and 50% F-12 (Life Technologies) media, supplemented with 10% Fetal Bovine Serum (ATCC), 25 mM HEPES (Life Technologies), and 1×Pen-Strep (Life Technologies). Cells were cultured in a humidified incubator set at 37° C., 5% CO2, and trypsonized using 0.25% Trypsin with 0.5% polyvinylpyrrolidone (PVP).
For the assay, BEAS-2B cells were seeded at 7,500 cells/well (25 μL/well) in a 384-well plate and cultured overnight. Before dosing, growth media was aspirated and the wells were rinsed with HBSS Buffer (HBSS with Calcium and Magnesium, Life Technologies) supplemented with 25 mM HEPES (Life Technologies) and 1% Bovine Serum Albumin (Roche). Compounds were serially diluted in DMSO, then further diluted with supplemented HBSS Buffer (50 μL/well) to create a compound plate 3× of the final assay concentration, at 0.3% DMSO. The diluted compounds were then added to the cells (8 μL/well) and incubated at 37° C., 5% CO2 for 1 hour. After the compound incubation, TGF-β (R&D Systems) reconstituted in supplemented HBSS Buffer was added to the cells ([…], final concentration 10 ng/mL) and incubated for a further 30 minutes, after which the cells were immediately lysed with AlphaLISA lysis buffer (PerkinElmer). AlphaLISA Acceptor and Detector beads (PerkinElmer) were added 2 hours apart, then incubated overnight to be read the next day. The potency of the compound was determined through analysis of dose-dependent quantified changes in pSMAD3 signal from baseline (non-compound treated TGF-β stimulated cells). Data are expressed as pIC50 (negative decadic logarithm IC50) values.

[2] = target: T1, recombinant human ALK5 (TGF-βR1) protein (Homo sapiens, UniProt P36897); assay: Biochemical ALK5 (TGF-βR1) assay to measure pKi (LANCE Ultra ULight kinase assay); settings: apparent pKi, converted from pIC50 by Cheng-Prusoff
T1 construct: purchased Life Technologies PR9075A
T1 sequence (P36897 34-503): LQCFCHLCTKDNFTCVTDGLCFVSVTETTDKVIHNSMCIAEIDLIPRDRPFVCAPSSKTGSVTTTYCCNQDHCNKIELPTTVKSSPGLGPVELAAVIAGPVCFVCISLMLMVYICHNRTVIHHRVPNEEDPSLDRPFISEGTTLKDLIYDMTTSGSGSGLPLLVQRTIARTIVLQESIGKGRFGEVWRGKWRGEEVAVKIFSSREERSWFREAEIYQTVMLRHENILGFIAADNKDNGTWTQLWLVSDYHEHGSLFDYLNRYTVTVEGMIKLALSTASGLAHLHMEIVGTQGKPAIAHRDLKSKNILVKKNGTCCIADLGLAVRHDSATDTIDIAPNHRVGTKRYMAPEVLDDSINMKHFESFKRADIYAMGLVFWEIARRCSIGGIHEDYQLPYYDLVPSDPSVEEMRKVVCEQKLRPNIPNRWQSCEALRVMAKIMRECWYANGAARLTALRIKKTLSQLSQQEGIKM
Procedure: The assays were performed in a 384-well plate (24 columns×16 wells/rows). An Echo®550 Liquid Handler (Labcyte) was used to prepare various intermediate concentrations of compounds of the present disclosure in 100% DMSO. From the intermediate concentrations, a range of concentrations (from […] to 25 μM corresponding to volumes up to 105 nL) were prepared and ejected into a final assay plate to be used to create individual dose response curves for each of the subject compounds. To a separate column within the assay plate, 105 nL of DMSO in each well was used to establish a maximum assay signal. Additionally, 105 nL of 100 μM SD-208, a selective TGF-βR1 inhibitor (Catalog #S7624, Selleck Chemicals), was used in another column of wells to establish a minimal assay signal.
With a multidrop dispenser, 8 μL of enzyme mixture (1.25× final) was added to each well. […] The plate was then sealed with an adhesive seal and allowed to equilibrate for 60 minutes at room temperature.
Next, 2 μL of 125 μM ATP (5×final, 125 μM ATP prepared in assay buffer with 2 mM DTT) was added to the incubated mixtures, covered with a MicroClime® Environmental Lid (Product No. LLS-0310, Labcyte) and immediately transferred to 37° C. The reactions were allowed to proceed at 37° C. for 60 minutes before terminating with the addition of 10 μL of detection antibody (LANCE® (lanthanide chelate excite) Ultra Europium-anti-phospo-DNA Topoisomerase 2-alpha (Thr1342)) in detection mixture (12 mM EDTA, 4 nM detection antibody prepared in detection buffer (50 mM Tris-HCl, 150 mM NaCl, 0.5% BSA (Fraction V), pH 7.0)) at room temperature. The plate was then read on a Perkin Elmer EnVision Plate Reader using europium specific reader settings with excitation and emission wavelengths set to 320 or 340 nm and 665 nm, respectively.
For dose-response analyses, percent inhibition versus compound concentrations were plotted, and pIC50 values were determined from a 4-parameter robust fit model with GraphPad Prism V5 Software (GraphPad Software, Inc., La Jolla, CA). This model obtains pIC50 values by fitting the sigmoidal dose-response (variable slope) equation to the data. Results were expressed as pIC50 (negative logarithm of IC50) and subsequently converted to pKi (negative logarithm of dissociate constant, Ki) using the Cheng-Prusoff equation. The higher the value of pKi (lower value of Ki), the greater the inhibition of ALK5 activity.

SMILES | IC50 [1] [nM] | Ki [2] [nM]
Cc1cccc(-c2nccc(Nc3ccnc(Nc4ccc(N5CCNC(C)C5)cc4)n3)n2)n1 (racemic) [Compound 7, N4-[2-(6-methyl-2-pyridyl)pyrimidin-4-yl]-N2-[4-[rac-(3R)-3-methylpiperazin-1-yl]phenyl]pyrimidine-2,4-diamine] | 25.1 to 158 | –
Cc1cccc(-c2nccc(Nc3ccnc(Nc4ccc(N5CCNCC5CC(=O)O[C@@H]5CCN(C)C5)cc4)n3)n2)n1 (mixture of isomers) [Compound 103, (R)-1-methylpyrrolidin-3-yl 2-(1-(4-((4-((2-(6-methylpyridin-2-yl)pyrimidin-4-yl)amino)pyrimidin-2-yl)amino)phenyl)piperazin-2-yl)acetate] | 200 to 1260 | 0.398 to 3.16
Cc1cccc(-c2nccc(Nc3ccnc(Nc4ccc(CN5CCCC(C(=O)O[C@@H]6CCNC6)C5)cc4)n3)n2)n1 (mixture of isomers) [Compound 105, [rac-(3R)-pyrrolidin-3-yl] 1-[[4-[[4-[[2-(6-methyl-2-pyridyl)pyrimidin-4-yl]amino]pyrimidin-2-yl]amino]phenyl]methyl] piperidine-3-carboxylate] | 25.1 to 158 | 0.0398 to 0.316
CCC(C)OC(=O)C1CN(c2ccc(Nc3nccc(Nc4ccnc(-c5cccc(C)n5)n4)n3)cc2)CCN1 (racemic) [Compound 192, [rac-(1R)-1-methylpropyl] 4-[4-[[4-[[2-(6-methyl-2-pyridyl)pyrimidin-4-yl]amino]pyrimidin-2-yl]amino]phenyl]piperazine-2-carboxylate] | 25.1 to 158 | 0.0398 to 0.316
Cc1cccc(-c2nccc(Nc3ccnc(Nc4ccc(CN5CCCC(C(=O)O[C@H]6CCNC6)C5)cc4)n3)n2)n1 (mixture of isomers) [Compound 212, [rac-(3S)-pyrrolidin-3-yl] 1-[[4-[[4-[[2-(6-methyl-2-pyridyl)pyrimidin-4-yl]amino]pyrimidin-2-yl]amino]phenyl]methyl] piperidine-3-carboxylate] | 25.1 to 158 | 0.0398 to 0.316
Cc1cccc(-c2nccc(Nc3ccnc(Nc4ccc(N5CCNCC5C)cc4)n3)n2)n1 (racemic) [Compound 216, N4-[2-(6-methyl-2-pyridyl)pyrimidin-4-yl]-N2-[4-[rac-(2S)-2-methylpiperazin-1-yl]phenyl]pyrimidine-2,4-diamine] | 25.1 to 158 | 0.0398 to 0.316
CCC(C)OC(=O)C1CNCCN1c1ccc(Nc2nccc(Nc3ccnc(-c4cccc(C)n4)n3)n2)cc1 (racemic) [Compound 230, [rac-(1R)-1-methylpropyl] 1-[4-[[4-[[2-(6-methyl-2-pyridyl)pyrimidin-4-yl]amino]pyrimidin-2-yl]amino]phenyl]piperazine-2-carboxylate] | 25.1 to 158 | 0.398 to 3.16
Cc1cccc(-c2nccc(Nc3ccnc(Nc4ccc(N(C)C5CCNC5)cc4)n3)n2)n1 (racemic) [Compound 274, N4-[2-(6-methyl-2-pyridyl)pyrimidin-4-yl]-N2-[4-[methyl-[rac-(3R)-pyrrolidin-3-yl]amino]phenyl]pyrimidine-2,4-diamine] | 25.1 to 158 | 0.0398 to 0.316
Cc1cccc(-c2nccc(Nc3ccnc(Nc4ccc(CN5[C@H]6CCNC[C@@H]5CC6)cc4)n3)n2)n1 (racemic) [Compound 360, N4-[2-(6-methyl-2-pyridyl)pyrimidin-4-yl]-N2-[4-[[rac-(1S,6R)-3,9-diazabicyclo[4.2.1]nonan-9-yl]methyl]phenyl]pyrimidine-2,4-diamine] | 25.1 to 158 | 0.0398 to 0.316
Cc1cccc(-c2nccc(Nc3ccnc(Nc4ccc(N5CCNC(C)C5)cc4)n3)n2)n1 (racemic) [Compound 528, N4-[2-(6-methyl-2-pyridyl)pyrimidin-4-yl]-N2-[4-[rac-(3S)-3-methylpiperazin-1-yl]phenyl]pyrimidine-2,4-diamine] | – | 0.0398 to 0.316
Cc1cccc(-c2ncc(C(=O)O)c(Nc3ccnc(Nc4ccc(N)cc4)n3)n2)n1 [Compound 26, 4-[[2-(4-aminoanilino)pyrimidin-4-yl]amino]-2-(6-methyl-2-pyridyl)pyrimidine-5-carboxylic acid] | 1580 to 10000 | –
Cc1cccc(-c2nccc(Nc3ccnc(Nc4ccc(CN5CC(CO)C5)cc4)n3)n2)n1 [Compound 266, [1-[[4-[[4-[[2-(6-methyl-2-pyridyl)pyrimidin-4-yl]amino]pyrimidin-2-yl]amino]phenyl]methyl]azetidin-3-yl]methanol] | – | 0.0398 to 0.316
CNC(=O)Cc1cc(Nc2ccnc(Nc3ccc(N4CCNCC4)cc3)n2)nc(-c2cccc(C)n2)n1 [Compound 309, N-methyl-2-[2-(6-methyl-2-pyridyl)-6-[[2-(4-piperazin-1-ylanilino)pyrimidin-4-yl]amino]pyrimidin-4-yl]acetamide] | 200 to 1260 | –
Cc1cccc(-c2nccc(Nc3ccnc(Nc4ccc(CN5CC[C@@H](O)C5)cc4)n3)n2)n1 [Compound 319, (3R)-1-[[4-[[4-[[2-(6-methyl-2-pyridyl)pyrimidin-4-yl]amino]pyrimidin-2-yl]amino]phenyl]methyl] pyrrolidin-3-ol] | – | ≤ 0.0316
COC(=O)c1ccc(Nc2nccc(Nc3nc(-c4cccc(C)n4)ncc3C(=O)OC)n2)cc1 [Compound 468, methyl 4-[[2-(4-methoxycarbonylanilino)pyrimidin-4-yl]amino]-2-(6-methyl-2-pyridyl) pyrimidine-5-carboxylate] | 200 to 1260 | –
Cc1cccc(-c2nccc(Nc3ccnc(Nc4ncc(N5CCNCC5)s4)n3)n2)n1 [Compound 640, N4-[2-(6-methyl-2-pyridyl)pyrimidin-4-yl]-N2-(5-piperazin-1-ylthiazol-2-yl)pyrimidine-2,4-diamine] | – | 3.98 to 31.6
CNC(=O)Cc1cc(Nc2ccnc(Nc3ccc(N4CCNCC4)cc3)n2)nc(-c2cccc(C)n2)n1 [Compound 1008, N-methyl-2-[2-(6-methyl-2-pyridyl)-6-[[2-(4-piperazin-1-ylanilino)pyrimidin-4-yl]amino]pyrimidin-4-yl] acetamide] | – | 3.98 to 31.6
COC(=O)c1ccc(Nc2nccc(Nc3nc(-c4cccc(C)n4)ncc3C(=O)OC)n2)cc1 [Compound 1043, methyl 4-[[2-(4-methoxycarbonylanilino)pyrimidin-4-yl]amino]-2-(6-methyl-2-pyridyl)pyrimidine-5-carboxylate] | – | 3.98 to 31.6
Cc1cccc(-c2ncc(C(=O)O)c(Nc3ccnc(Nc4ccc(N)cc4)n3)n2)n1 [Compound 1044, 4-[[2-(4-aminoanilino)pyrimidin-4-yl]amino]-2-(6-methyl-2-pyridyl)pyrimidine-5-carboxylic acid] | – | 0.398 to 3.16
